Measurements from paper PMC11490426, “Structure-activity relationship of amino acid analogs to probe the binding pocket of sodium-coupled neutral amino acid transporter SNAT2” (Amino Acids, 2024).
“Also recorded” adds a separate entry of the source. Counter-ions that a name gives are not always drawn. Like-named read-outs stand apart in the source and are kept apart here.

Experiments:
[1] = biological target: T1, SNAT2 (Homo sapiens, UniProt Q96QD8); experiment: FLIPR membrane potential (FMP) assay in PC-3 cells; assay type: cell-based; settings: for response in the FMP assay (stimulation of SNAT2 activity) / influence on fluorescence intensity in the FMP assay: result in words; for influence on fluorescence intensity in the FMP assay: 20 mM
T1 construct: hyperosmotically treated PC-3 cells, known to upregulate SNAT2; endogenous in cells; host or cells: PC-3 prostate cells exposed to hyperosmotic medium for 24 h
T1 sequence (Q96QD8 1-506): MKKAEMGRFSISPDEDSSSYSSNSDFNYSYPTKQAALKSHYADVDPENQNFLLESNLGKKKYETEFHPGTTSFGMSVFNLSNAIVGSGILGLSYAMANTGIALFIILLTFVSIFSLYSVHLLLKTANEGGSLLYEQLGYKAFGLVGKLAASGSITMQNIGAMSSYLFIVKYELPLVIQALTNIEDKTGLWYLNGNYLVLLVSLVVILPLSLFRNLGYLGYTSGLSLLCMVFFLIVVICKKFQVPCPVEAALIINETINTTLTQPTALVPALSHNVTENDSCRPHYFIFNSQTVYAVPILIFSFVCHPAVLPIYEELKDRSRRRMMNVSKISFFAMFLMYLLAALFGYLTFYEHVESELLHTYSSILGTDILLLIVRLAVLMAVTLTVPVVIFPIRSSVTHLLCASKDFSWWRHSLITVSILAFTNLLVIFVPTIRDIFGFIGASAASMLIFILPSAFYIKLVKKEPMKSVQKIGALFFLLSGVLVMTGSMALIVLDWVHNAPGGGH
Procedure: PC-3 cells exposed to hyperosmotic media for 24 h were used to identify SNAT2 substrates in the FMP assay. The media was aspirated, and the cells were preincubated in HBSS + for 10 min at 37 °C and 220 rpm. Then the buffer was aspirated, and cells were then incubated in 50 µL HBSS + containing 0.55 mg ⋅ mL^− 1 (1x) FMP probe (Blue component A from Molecular Devices, San Jose, CA, USA) for 30 min at 37 °C and 220 rpm. […] First, the baseline was measured for 30 s by measuring each well every 3 s. The plate was then removed from the reader and 50 µL of substrate solutions containing 0.55 mg ⋅ mL^− 1 FMP probe was added. These solutions were prepared by mixing equal parts solution containing 2x FMP probe and solutions containing 4x the final concentration of substrate. […] Following this, the baseline of the next column was measured and followed the same procedure as just described.
For the FMP data, the baseline was defined as the mean fluorescence of the first data point before substrate addition. The baseline of each well was then subtracted from the data point to get the ΔF. Plotting ΔF as a function of time and calculating the area under the curve (AUC) after substrate addition was used as a measure of SNAT2 activity.

[2] = biological target: T1, SNAT2; experiment: Inhibition of SNAT2-mediated 3H-glycine uptake in hyperosmotically treated PC-3 cells; assay type: cell-based; settings: for inhibition of SNAT2-mediated 3H-glycine uptake / affinity for SNAT2: pH 7.4, result in words
Procedure: Where Y is the % uptake, X is the concentration of the inhibitor, Top and Bottom are the top and bottom plateau respectively, and IC50 is the half maximal inhibitory concentration. These studies were performed in at least 3 independent cell passages (n = 3) and a curve was defined for each independent passage. However, for each compound, the top and bottom were constrained to be the same amongst the different cell passages.

[3] = biological target: T1, SNAT2; experiment: Intracellular amino acids and analogs quantified by OPA derivatization and HPLC-Fl after uptake in PC-3 cells; assay type: cell-based; settings: 30 min uptake; for fold change of intracellular accumulation in absence vs presence of 10 mM L-glutamine: pH 7.4
Procedure: Derivatization of AAs and analogs using o-phthalaldehyde (OPA) and 2-mercaptoethanol (2-ME) to make fluorescent derivatives was used to measure the intracellular amounts of AAs and analogs following uptake in hyperosmotically treated PC-3 cells. Before starting the experiment, the medium was aspirated, and the cells were preincubated in HBSS + for 15 min at 37 °C and 220 rpm. The cells were then incubated with 500 µL HBSS+ (background) or HBSS + containing AAs or analogs at given concentrations for 30 min at 37 °C and 220 rpm. After aspirating the donor solutions, the cells were washed thrice with 500 µL of ice-cold PBS while keeping the cells on ice. 200 µL of ice-cold 1x-trypsin was added to each well and allowed to distribute for 20–30 min while keeping the cells on ice. The plate was then transferred to an incubating microplate shaker at 37 °C and 220 rpm for about 8 min or until the cells had detached. 300 µL of ice-cold PBS was added to each well to resuspend the cells and transfer them to centrifuge tubes. The cells were centrifuged at 1000 G for 5 min (4 °C), the supernatant was removed, the cells were resuspended in 300 µL ice-cold PBS, and then centrifuged again at 1000 G for 5 min (4 °C). After removing the supernatant, the cell pellet was lysed by adding 100 µL of 80% methanol (20% ultrapure water) and placing the tubes in an ultrasonic bath for 10 min. The tubes were then centrifuged at 15,000 G for 15 min (4 °C) and the resulting supernatant was used for analysis.
The OPA reagent was prepared by spiking with 2 µL 2-ME per mL of OPA regent and was considered stable for use within one day. 10 µL of the cell samples or standards containing a mixture of the AAs and analogs of interest were placed in HPLC vials with 100 µL inserts. […] The autosampler kept the samples at 10 °C and the pretreatment function was used to automatically mix the samples with 10 µL of the OPA reagent and wait 4 min before loading 2 µL onto a YMC-Triart C18 column (75 × 3.0 mm, 1.9 μm, Mikrolab Aarhus, Viby J, Denmark). […] The fluorescence detector was set to excite at 350 nm and detect at 450 nm.
The resulting chromatograms were integrated and the area under the curve (AUC) of the standard samples was used to generate standard curves to determine the concentration of AAs and analogs in the cell samples. […] Amino acid levels detected in the background cell samples were subtracted from the other cell samples.

[4] = biological target: T1, SNAT2; experiment: FLIPR membrane potential (FMP) assay in PC-3 cells; assay type: cell-based; settings: isoosmotically treated PC-3 cells
[5] = biological target: T1, SNAT2; parameters: method as in Jakobsen et al. [2023]; Nielsen et al. [2022]; settings: hyperosmotically treated PC-3 cells; ref Jakobsen et al. [2023]; Nielsen et al. [2022]; cited from earlier work
[6] = 10 mM compound, hyperosmotically treated PC-3 cells
[7] = hyperosmotically treated PC-3 cells
[8] = hyperosmotically treated PC-3 cells, 5 min uptake of 11.1 nM 3H-glycine, pH 7.4, read-out: IC50
[9] = 3 mM compound, hyperosmotically treated PC-3 cells
[10] = 20 mM compound, hyperosmotically treated PC-3 cells

CCCC[C@H](N)C(=O)O [L-Norleucine, L-norleucine]
AUC of fluorescence response-time curve [1, 6]: 24.4 ± 1.3 10^5 RFU ∙ s | AUC, % of 10 mM L-alanine [1, 6]: 110.4 ± 6.1% | response in the FMP assay (stimulation of SNAT2 activity) [1, 7]: substrates of SNAT2

O=C(O)[C@@H]1CCCN1 [L-Proline, L-proline]
IC50 [2, 8]: 640 µM

N[C@H](C(=O)O)c1ccc(O)cc1 [oxfenicine, Oxfenicine]
inhibition of SNAT2-mediated 3H-glycine uptake / affinity for SNAT2 [2, 7]: relatively poor at inhibiting SNAT2

N[C@@H](CCC(=O)O)C(=O)O [L-glutamate, L-glutamic acid]
inhibition of SNAT2-mediated 3H-glycine uptake / affinity for SNAT2 [2, 7]: limited affinity

NCCCC[C@H](N)C(=O)O [L-lysine, L-lysine monohydrochloride]
inhibition of SNAT2-mediated 3H-glycine uptake / affinity for SNAT2 [2, 7]: limited affinity

Cl.NCC(N)=O [glycinamide, glycinamide hydrochloride]
inhibition of SNAT2-mediated 3H-glycine uptake / affinity for SNAT2 [2, 7]: potency is lost

O=C(O)[C@@H]1CCN1 [L-Azetidine-2-carboxylic acid, L-azetidine-2-carboxylic acid]
IC50 [2]: 660 µM

O=C(O)[C@@H]1CCCCN1 [L-Pipecolinic acid, L-pipecolinic acid]
AUC of fluorescence response-time curve [1, 6]: 18.1 ± 0.2 10^5 RFU ∙ s | AUC, % of 10 mM L-alanine [1, 6]: 81.9 ± 0.8% | response in the FMP assay (stimulation of SNAT2 activity) [1, 7]: substrates of SNAT2 | IC50 [2, 8]: 2900 µM

CNCC(=O)O [Sarcosine, sarcosine]
IC50 [2, 8]: 710 µM

N[C@@H](CCC(=O)OCc1ccccc1)C(=O)O [γ-Benzyl L-glutamate, γ-benzyl L-glutamate]
AUC of fluorescence response-time curve [1, 9]: 1.7 ± 0.4 10^5 RFU ∙ s | AUC, % of 10 mM L-alanine [1, 9]: 7.8 ± 1.9% | response in the FMP assay (stimulation of SNAT2 activity) [1, 7]: little or no stimulation of SNAT2 activity | IC50 [2, 8]: 680 µM | fold change of intracellular accumulation in absence vs presence of 10 mM L-glutamine ([3]; 0.7 mM compound): 5.4 fold | level of intracellular accumulation ([3]; result in words): relatively low accumulation

CCOC(=O)[C@H](C)N [L-Alanine ethyl ester, L-alanine ethyl ester hydrochloride]
AUC of fluorescence response-time curve [1, 6]: 21.1 ± 0.6 10^5 RFU ∙ s | AUC, % of 10 mM L-alanine [1, 6]: 95.4 ± 2.5% | response in the FMP assay (stimulation of SNAT2 activity) [1, 7]: substrates of SNAT2 | IC50 [2, 8]: 420 µM

CN(C)CC(=O)O [N,N-Dimethylglycine, N,N-dimethylglycine hydrochloride]
IC50 [2, 8]: 23000 µM | IC50 ([2]; hyperosmotically treated PC-3 cells, -log transformed IC50, read-out: pIC50 ± SEM (converted)): 25100 µM

N[C@@H](CO)C(=O)O [L-Serine, L-serine]
AUC of fluorescence response-time curve [1, 6]: 24 ± 0.9 10^5 RFU ∙ s | AUC, % of 10 mM L-alanine [1, 6]: 108.6 ± 4.2% | IC50 [2, 8]: 460 µM | fold change of intracellular accumulation in absence vs presence of 10 mM L-glutamine ([3]; 0.45 mM compound): 4.1 fold

C[C@H](N)C(=O)O [L-Alanine, L-alanine]
EC50 [4]: 138 µM | AUC of fluorescence response-time curve [1, 6]: 22.1 ± 0.9 10^5 RFU ∙ s | AUC, % of 10 mM L-alanine [1, 6]: 100 ± 3.9% | EC50 [1, 7]: 245 µM | IC50 [2, 8]: 170 µM | inhibition of 3H-glycine uptake at different pH levels ([2]; pH 6.8, 7.4 and 8.0, 0.4 mM L-alanine benzyl ester or 0.2 mM L-alanine, two-way ANOVA): no significant differences in inhibition at the different pH levels

CC(=O)C(C)N.Cl (centres unmarked) [3-aminobutan-2-one, 3-Aminobutan-2-one hydrochloride]
inhibition of SNAT2-mediated 3H-glycine uptake / affinity for SNAT2 [2, 7]: retains some affinity for SNAT2

O=C(O)c1ccccn1 [picolinic acid]
Hill slope of concentration-response curve [2, 7]: -4.2 | IC50 [2, 8]: 5600 µM

C[N+](C)(C)CC(=O)O [Betaine, betaine]
reduction of 3H-glycine uptake [5]: ~86% | IC50 [2, 8]: 6600 µM

COC(=O)[C@H](C)N [L-Alanine methyl ester, L-alanine methyl ester hydrochloride]
AUC of fluorescence response-time curve [1, 6]: 23.5 ± 0.8 10^5 RFU ∙ s | AUC, % of 10 mM L-alanine [1, 6]: 106.6 ± 3.8% | response in the FMP assay (stimulation of SNAT2 activity) [1, 7]: substrates of SNAT2 | IC50 [2, 8]: 330 µM

NCC(=O)O [Glycine, glycine]
IC50 [2, 8]: 520 µM | pIC50 ± SEM ([2]; hyperosmotically treated PC-3 cells, -log transformed IC50): [3.3 ± 0.11]

NCCS(=O)(=O)O [Taurine, taurine]
AUC of fluorescence response-time curve [1, 10]: -1.0 ± 0.2 10^5 RFU ∙ s | AUC, % of 10 mM L-alanine [1, 10]: -4.7 ± 0.7% | influence on fluorescence intensity in the FMP assay [1]: did not lead to an increase in fluorescence; also recorded: little influence on the fluorescence intensity

N[C@@H](Cc1ccccc1)C(=O)O [L-phenylalanine]
inhibition of SNAT2-mediated 3H-glycine uptake / affinity for SNAT2 [2, 7]: relatively poor at inhibiting SNAT2

N[C@@H](CCO)C(=O)O [L-Homoserine, L-homoserine]
AUC of fluorescence response-time curve [1, 6]: 25.9 ± 1.4 10^5 RFU ∙ s | AUC, % of 10 mM L-alanine [1, 6]: 117.5 ± 6.2% | response in the FMP assay (stimulation of SNAT2 activity) [1, 7]: substrates of SNAT2 | IC50 [2, 8]: 250 µM

C[C@H](N)CO [L-alaninol]
inhibition of SNAT2-mediated 3H-glycine uptake / affinity for SNAT2 [2, 7]: potency is lost

C[C@H](N)C(=O)OC(C)(C)C [L-Alanine tert-butyl ester, L-alanine tert-butyl ester hydrochloride]
IC50 [2, 8]: 4100 µM

N[C@@H](CC1CCCCC1)C(=O)O [3-Cyclohexyl-L-alanine, 3-cyclohexyl-L-alanine]
AUC of fluorescence response-time curve [1, 9]: 21.9 ± 0.5 10^5 RFU ∙ s | AUC, % of 10 mM L-alanine [1, 9]: 99.2 ± 2.4% | response in the FMP assay (stimulation of SNAT2 activity) [1, 7]: substrates of SNAT2 | IC50 [2, 8]: 630 µM

N=C(N)NCCC[C@H](N)C(=O)O [L-Arginine, L-arginine hydrochloride]
AUC of fluorescence response-time curve [1, 10]: -0.97 ± 0.3 10^5 RFU ∙ s | AUC, % of 10 mM L-alanine [1, 10]: -4.4 ± 1.2% | influence on fluorescence intensity in the FMP assay [1]: little influence on the fluorescence intensity

O=C(O)[C@@H]1C[C@@H](O)CN1 [trans-4-Hydroxy-L-proline, trans-4-hydroxy-L-proline]
IC50 [2]: 3500 µM
